# Results published in US20240262806A1, “INHIBITORS OF NLRP3” (PTC THERAPEUTICS, INC., priority 2021, published 2024).
# System: NLRP3 inflammasome
# Assay: IL-1β Secretion Assay (NLRP3-dependent IL-1β secretion in PMA-differentiated THP-1 cells, nigericin activation, HTRF)
# Assay type: cell-based
# Conditions: Homo sapiens, THP-1, THP-1 cells, 100 ng/mL PMA 24 h, compound 20 h, 2.5 μM Nigericin 3 h; read-out: IC50 IL-1β Inhibition
# Outline: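 IL-1β release, quantified by HTRF after nigericin activation of the NLRP3 inflammasome, was the read-out. A logistic fit of percent inhibition gave IC50.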
row,Structure (SMILES),IC50 [µM]
1,CN1C[C@H](O)C[C@@H](Nc2nnc(-c3ccc(C(F)(F)F)cc3O)c3c(F)ccn23)C1 [Compound I-597],0.01 to 0.1
2,CN1CCCCC(Nc2nnc(-c3ccc(C(F)(F)F)cc3O)c3ccccc23)C1 (stereo not shown) [Compound I-95],0.001 to 0.01
3,CN1C[C@H](F)C[C@@H](Nc2nnc(-c3c(O)cc(C(F)(F)F)cc3F)c3cccn23)C1 [Compound I-416],0.001 to 0.01
4,"OCCN1CCC[C@@H](Nc2nnc(-c3ccc(C(F)(F)F)cc3O)c3c2CCCC3)C1 [Compound I-62, 2-[4-[[(3R)-1-(2-hydroxyethyl)-3-piperidyl]amino]-5,6,7,8-tetrahydrophthalazin-1-yl]-5-(trifluoromethyl)phenol]",< 0.001
5,CN1C[C@H](F)C[C@@H](Nc2nnc(-c3c(O)cc(Cl)cc3F)c3cccn23)C1 [Compound I-481],0.001 to 0.01
6,COc1cc(C)cc(O)c1-c1nnc(N[C@@H]2CCCN(C)C2)c2cnccc12 [Compound I-267],0.001 to 0.01
7,CC(C)(O)CN1CCC[C@@H](Nc2nnc(-c3ccc(C(F)(F)F)cc3O)c3cccn23)C1 [Compound I-364],0.001 to 0.01
8,Oc1cc(C(F)(F)F)ccc1-c1nnc(N[C@H]2CNCC[C@H]2F)c2cnccc12 [Compound I-301],0.001 to 0.01
9,C[C@]1(O)C[C@@H](Nc2nnc(-c3ccc(OC(F)(F)F)cc3OC(F)F)c3cccn23)C1 [Compound I-522],0.01 to 0.1
10,Cc1cc(F)c(-c2nnc(N[C@@H]3C[C@@H](F)CN(C)C3)n3cccc23)c(OC(F)F)c1 [Compound I-462],0.01 to 0.1
11,COc1ccc(-c2nnc(N[C@@H]3CCCN(C)C3)c3cnccc23)c(OC(F)F)c1 [Compound I-171],< 0.001
12,Cc1ccc(-c2nnc(N[C@@H]3CCCN(CCO)C3)n3cccc23)c(O)c1 [Compound I-354],< 0.001
13,Cc1ccc(-c2nnc(N[C@@H]3CCCN(C)C3)c3cnccc23)c(O)n1 [Compound I-78],0.01 to 0.1
14,Oc1cc(C(F)(F)F)ccc1-c1nnc(N[C@@H]2CC[C@@H](O)C2)n2cccc12 [Compound I-449],0.01 to 0.1
15,"OCCN1CCC[C@@H](Nc2nnc(-c3c(O)cc(Cl)cc3F)c3ccncc23)C1 [Compound I-282, 5-Chloro-3-fluoro-2-[4-[[(3R)-1-(2-hydroxyethyl)-3-piperidyl]amino]pyrido[3,4-d]-pyridazin-1-yl]phenol]",< 0.001
16,C[C@@H](O)CNc1nnc(-c2ccc(C3CC3)cc2O)c2cccn12 [Compound I-586],0.1 to 0.3
17,CCN1C[C@H](F)C[C@@H](Nc2nnc(-c3c(O)cc(C)cc3F)c3cccn23)C1 [Compound I-571],< 0.001
18,CCN1CCC[C@@H](Nc2nnc(-c3ccc(C(F)(F)F)cc3C(F)(F)F)c3cccn23)C1 [Compound I-371],< 0.001
19,CN1CCC[C@@H](Nc2nnc(-c3ccc(OC(F)(F)F)cc3C(F)F)c3ccncc23)C1 [Compound I-319],0.001 to 0.01
20,COc1ccc(-c2nnc(N[C@@H]3CCCN(C)C3)n3cccc23)c(OC(F)F)c1 [Compound I-471],0.001 to 0.01
21,"C#Cc1ccc(-c2nnc(N[C@@H]3CCCN(C)C3)c3ccccc23)c(O)c1 [Compound I-226, (R)-5-ethynyl-2-(4-((1-methylpiperidin-3-yl)amino)phthalazin-1-yl)phenol]",< 0.001
22,Cc1cnc(-c2nnc(N[C@@H]3CCCN(C)C3)c3cnccc23)c(O)c1 [Compound I-195],0.001 to 0.01
23,Oc1cc(C(F)(F)F)ccc1-c1nnc(N[C@@H]2CCCNC2)n2cccc12 [Compound I-352],0.001 to 0.01

row,Structure (SMILES),IC50 [µM]
1,"CN1CCC[C@@H](Nc2nnc(-c3ccc(C(F)(F)F)cc3O)c3cncn23)C1 [Compound I-333, 2-[4-[[(3R)-1-Methyl-3-piperidyl]amino]imidazo[1,5-d][1,2,4]triazin-1-yl]-5-(trifluoromethyl)phenol]",< 0.001
2,CN1CCC[C@@H](Nc2nnc(-c3ccc(-c4ccccc4)cc3O)c3ccccc23)C1 [Compound I-39],0.001 to 0.01
3,"CN1CCC[C@@H](Nc2nnc(-c3ccc(C4CC4)cc3C(F)F)c3cccn23)C1 [Compound I-446, 1-[4-Cyclopropyl-2-(difluoromethyl)phenyl]-N-[(3R)-1-methyl-3-piperidyl]pyrrolo-[1,2-d][1,2,4]triazin-4-amine]",0.001 to 0.01
4,CCN1CCC[C@@H](Nc2nnc(-c3ccc(C(F)(F)F)cc3OC(F)F)c3cccn23)C1 [Compound I-335],< 0.001
5,CN1CCOCC(Nc2nnc(-c3ccc(C(F)(F)F)cc3O)c3cnccc23)C1 (stereo not shown) [Compound I-260],0.01 to 0.1
6,COc1ccc(-c2nnc(N[C@@H]3CCCN(C)C3)c3cnccc23)c(C(F)F)c1 [Compound I-287],0.001 to 0.01
7,CN1CC[C@@H](Nc2nnc(-c3ccc(C(F)(F)F)cc3O)c3c2CCCC3)C1 [Compound I-26],0.01 to 0.1
8,Oc1cc(Cl)ccc1-c1nnc(N[C@@H]2CCCN(CC(F)F)C2)n2cncc12 [Compound I-559],0.001 to 0.01
9,CN1C[C@H](F)C[C@@H](Nc2nnc(-c3ccc(C4CC4)cc3C(F)F)c3cccn23)C1 [Compound I-507],0.01 to 0.1
10,CN1CCC[C@@H](Nc2nnc(-c3ccc(C4CC4)cc3O)c3ccccc23)C1 [Compound I-49],< 0.001
11,OCCN1CCC[C@@H](Nc2nnc(-c3ccc(OC(F)(F)F)cc3O)c3cccn23)C1 [Compound I-373],0.001 to 0.01
12,"CN1CCC[C@@H](Nc2nnc(-c3ncc(Cl)cc3O)c3ccccc23)C1 [Compound I-81, (R)-5-Chloro-2-(4-((1-methylpiperidin-3-yl)amino)phthalazin-1-yl)pyridin-3-ol]",0.01 to 0.1
13,OCCN1CCC[C@@H](Nc2nnc(-c3ccc(OC(F)(F)F)cc3OC(F)F)c3cccn23)C1 [Compound I-520],0.001 to 0.01
14,"CCOC(=O)[C@@H]1CC[C@@H](Nc2nnc(-c3ccc(C(F)(F)F)cc3O)c3ccncc23)CN1 [Compound I-266, Ethyl (2S,5R)-5-((1-(2-hydroxy-4-(trifluoromethyl)phenyl)pyrido[3,4-d]pyridazin-4-yl)amino)piperidine-2-carboxylate]",< 0.001
15,CCN1CCC[C@@H](Nc2nnc(-c3c(O)cc(C4CC4)cc3F)c3c(F)ccn23)C1 [Compound I-602],< 0.001
16,CN1CCOCC(Nc2nnc(-c3ccc(C(F)(F)F)cc3O)c3ccncc23)C1 (stereo not shown) [Compound I-262],0.001 to 0.01
17,Cc1ccc(-c2nnc(N[C@@H]3CCCN(C)C3)c3ccccc23)c(O)c1C [Compound I-42],< 0.001
18,CCOc1cc(O)c(-c2nnc(N[C@H]3C[C@@](C)(O)C3)n3cccc23)c(F)c1 [Compound I-629],0.01 to 0.1
19,CC(C)(O)CN1CCC[C@@H](Nc2nnc(-c3ccc(C(F)(F)F)cc3C(F)(F)F)c3cccn23)C1 [Compound I-470],0.01 to 0.1
20,OCCN1CCC[C@@H](Nc2nnc(-c3ccc(C(F)(F)F)cc3O)c3cncn23)C1 [Compound I-350],0.001 to 0.01
21,CC(C)N1CCC[C@@H](Nc2nnc(-c3ccc(C(F)(F)F)cc3O)c3c2CCCC3)C1 [Compound I-34],< 0.001
22,Oc1cc(C(F)(F)F)ccc1-c1nnc(CC2CCCNC2)c2ccccc12 (stereo not shown) [Compound I-30],0.01 to 0.1
23,CN1CCCC(Cc2nnc(-c3ccc(C(F)(F)F)cc3O)c3ccccc23)C1 (stereo not shown) [Compound I-44],0.001 to 0.01

row,Structure (SMILES),IC50 [µM]
1,CN1CCC[C@@H](Nc2nnc(-c3ccc(C4=CCOCC4)cc3O)c3ccccc23)C1 [Compound I-56],0.01 to 0.1
2,Cc1ccc(-c2nnc(N[C@@H]3CCCN(C)C3)c3ccccc23)c(O)c1F [Compound I-51],< 0.001
3,CN1CCC[C@@H](Nc2nnc(-c3ccc(C4=CCOC4)cc3O)c3ccccc23)C1 [Compound I-57],0.001 to 0.01
4,CN1CCC[C@H](Nc2nnc(-c3ccc(-c4ncco4)cc3O)c3ccncc23)C1 [Compound I-176],0.001 to 0.01
5,CN1CCC[C@@H](Nc2nnc(-c3ccc(C#N)nc3O)c3ccccc23)C1 [Compound I-80],0.1 to 0.3
6,Cc1ccc(-c2nnc(N[C@@H]3CCCN(C)C3)c3cnccc23)c(C(F)(F)F)c1 [Compound I-298],0.001 to 0.01
7,Oc1cc(Cl)ccc1-c1nnc(N[C@@H]2CCCOC2)n2cccc12 [Compound I-402],0.01 to 0.1
8,Oc1cc(C(F)(F)F)ccc1-c1nnc(NC[C@@H]2CCCN2)c2ccccc12 [Compound I-68],< 0.001
9,Cc1cc(O)c(-c2nnc(N[C@@H]3CCCN(CCO)C3)c3cnccc23)c(F)c1 [Compound I-273],< 0.001
10,CCN1CCC[C@@H](Nc2nnc(-c3c(O)cc(OC)cc3F)c3cc(C)nn23)C1 [Compound I-555],< 0.001
11,COc1cc(C(F)(F)F)ccc1-c1nnc(N[C@H]2CN3CCC2CC3)c2cnccc12 [Compound I-199],0.01 to 0.1
12,CN1CCC[C@@H](Nc2nnc(-c3ccc(Cl)cc3C#N)c3ccncc23)C1 [Compound I-157],0.001 to 0.01
13,CN1CCC[C@@H](Nc2nnc(-c3ccc(C(F)(F)F)cc3)c3ccncc23)C1 [Compound I-166],0.001 to 0.01
14,FC(F)OCCN1CCC[C@@H](Nc2nnc(-c3ccc(C(F)(F)F)cc3C(F)(F)F)c3cccn23)C1 [Compound I-469],0.01 to 0.1
15,C[C@H](O)CNc1nnc(-c2c(O)cc(Cl)cc2F)c2cccn12 [Compound I-577],0.01 to 0.1
16,"CN1CCC[C@@H](Nc2nnc(-c3ccc(C(F)(F)F)cc3O)c3cnnn23)C1 [Compound I-461, (R)-2-(7-((1-Methylpiperidin-3-yl)amino)-[1,2,3]triazolo[1,5-d][1,2,4]triazin-4-yl)-5-(trifluoromethyl)phenol]",0.001 to 0.01
17,CCN1CCC[C@@H](Nc2nnc(-c3c(C)cc(C)cc3O)c3cccn23)C1 [Compound I-636],< 0.001
18,Cc1cc(O)c(-c2nnc(N[C@@H]3CCCN(C)C3)c3cnccc23)cc1F [Compound I-88],< 0.001
19,Oc1cc(Cl)cc(F)c1-c1nnc(NCC2CCCO2)n2cccc12 (stereo not shown) [Compound I-621],0.01 to 0.1
20,"CN1CCC[C@H](Cc2nnc(-c3ccc(C(F)(F)F)cc3O)c3ccccc23)C1 [Compound I-97, (R)-2-(4-((1-methylpiperidin-3-yl)methyl)phthalazin-1-yl)-5-(trifluoromethyl)phenol]",< 0.001
21,Oc1cc(Cl)ccc1-c1nnc(N[C@H]2CCOC2)n2cncc12 [Compound I-580],0.001 to 0.01
